Organism: Rattus norvegicus
Experiment: Open TG-GATES - Regimen: Single
Assay type: toxicity, organism-based, Sprague-Dawley
Parameters: regimen Single, gender Male, age 6 weeks
Settings: in vivo, po, 300 mg/kg, route gavage, dose level High; for APTT / Bas / Eos / Fbg / Hb / Ht / Lym / MCH / MCHC / MCV / Mono / Neu / PT / Plat / RBC / Ret / WBC: tissue Blood; for KIDNEY_L / KIDNEY_R / KIDNEY_TOTAL: tissue Kidney; for LIVER: tissue Liver; for A/G / ALP / ALT / AST / BUN / CRE / Ca / Cl / DBIL / GLC / IP / K / LDH / Na / PL / RALB / TBIL / TC / TG / TP / gamma-GTP: tissue Plasma

Work on `C[C@]12CCC(=O)C=C1CC[C@@H]1[C@@H]2CC[C@@]2(C)[C@H]1CC[C@]2(C)O` [METHYLTESTOSTERONE] yielded a TERMINAL_BW (3 h) of 199.1 g, an APTT (3 h) of 18.1 s and a Bas (3 h) of 0%. The Eos (3 h) was 0.8%, the Fbg (3 h) was 279.8 mg/dL and the Hb (3 h) was 13.1 g/dL. For the same molecule, the Ht (3 h) was 38.1%, the Lym (3 h) was 74% and the MCH (3 h) was 21.3 pg. It also gave an MCHC (3 h) of 34.4%, an MCV (3 h) of 62.1 fL and a Mono (3 h) of 3.2%. It also gave a Neu (3 h) of 21.2%, a PT (3 h) of 12.9 s and a Plat (3 h) of 116.5 x10_4/uL. It also gave an RBC (3 h) of 614.2 x10_4/ul, a Ret (3 h) of 8.5% and a WBC (3 h) of 82.4 x10_2/uL. For the same molecule, the KIDNEY_L (3 h) was 0.9 g, the KIDNEY_R (3 h) was 0.9 g and the KIDNEY_TOTAL (3 h) was 1.8 g. The LIVER (3 h) was 8.5 g, the A/G (3 h) was 0.9 and the ALP (3 h) was 1496.8 IU/L. It also gave an ALT (3 h) of 40 IU/L, an AST (3 h) of 74.6 IU/L and a BUN (3 h) of 10.6 mg/dL. The CRE (3 h) was 0.2 mg/dL, the Ca (3 h) was 10.6 mg/dL and the Cl (3 h) was 105.4 meq/L. It also gave a DBIL (3 h) of 0.012 mg/dL, a GLC (3 h) of 188.2 mg/dL and an IP (3 h) of 9.6 mg/dL. For the same molecule, the K (3 h) was 4.3 meq/L, the LDH (3 h) was 66 IU/L and the Na (3 h) was 140.8 meq/L. For the same molecule, the PL (3 h) was 135.2 mg/dL, the RALB (3 h) was 2.5 g/dL and the TBIL (3 h) was 0.05 mg/dL. It also gave a TC (3 h) of 75 mg/dL, a TG (3 h) of 41.2 mg/dL and a TP (3 h) of 5.4 g/dL. It also gave a gamma-GTP (3 h) of 1.2 IU/L, a TERMINAL_BW (6 h) of 201.8 g and an APTT (6 h) of 18.2 s. It also gave a Bas (6 h) of 0%, an Eos (6 h) of 0.8% and a Fbg (6 h) of 274.8 mg/dL. For the same molecule, the Hb (6 h) was 12.9 g/dL, the Ht (6 h) was 37.7% and the Lym (6 h) was 76.4%. The MCH (6 h) was 21.3 pg, the MCHC (6 h) was 34.3% and the MCV (6 h) was 62 fL. The Mono (6 h) was 3%, the Neu (6 h) was 19.6% and the PT (6 h) was 13.4 s. For the same molecule, the Plat (6 h) was 114.3 x10_4/uL, the RBC (6 h) was 608.4 x10_4/ul and the Ret (6 h) was 7.9%. It also gave a WBC (6 h) of 66.5 x10_2/uL, a KIDNEY_L (6 h) of 0.9 g and a KIDNEY_R (6 h) of 0.9 g. It also gave a KIDNEY_TOTAL (6 h) of 1.7 g, an LIVER (6 h) of 8.1 g and an A/G (6 h) of 0.9. It also gave an ALP (6 h) of 1589.4 IU/L, an ALT (6 h) of 45 IU/L and an AST (6 h) of 77.2 IU/L. For the same molecule, the BUN (6 h) was 9 mg/dL, the CRE (6 h) was 0.2 mg/dL and the Ca (6 h) was 10.6 mg/dL. The Cl (6 h) was 107.8 meq/L, the DBIL (6 h) was 0.016 mg/dL and the GLC (6 h) was 181.8 mg/dL. For the same molecule, the IP (6 h) was 9.6 mg/dL, the K (6 h) was 4.2 meq/L and the LDH (6 h) was 67.8 IU/L. It also gave a Na (6 h) of 141.6 meq/L, a PL (6 h) of 120 mg/dL and an RALB (6 h) of 2.5 g/dL. It also gave a TBIL (6 h) of 0.054 mg/dL, a TC (6 h) of 57.8 mg/dL and a TG (6 h) of 40.8 mg/dL. It also gave a TP (6 h) of 5.4 g/dL, a gamma-GTP (6 h) of 1.2 IU/L and a TERMINAL_BW (9 h) of 203.1 g. The APTT (9 h) was 17.8 s, the Bas (9 h) was 0% and the Eos (9 h) was 1%. The Fbg (9 h) was 269.8 mg/dL, the Hb (9 h) was 12.7 g/dL and the Ht (9 h) was 37.2%. For the same molecule, the Lym (9 h) was 74.4%, the MCH (9 h) was 21.5 pg and the MCHC (9 h) was 34.1%. It also gave an MCV (9 h) of 62.9 fL, a Mono (9 h) of 2.8% and a Neu (9 h) of 21.8%. For the same molecule, the PT (9 h) was 13.7 s, the Plat (9 h) was 105 x10_4/uL and the RBC (9 h) was 592.4 x10_4/ul. For the same molecule, the Ret (9 h) was 8.5%, the WBC (9 h) was 70.7 x10_2/uL and the KIDNEY_L (9 h) was 0.9 g. It also gave a KIDNEY_R (9 h) of 0.9 g, a KIDNEY_TOTAL (9 h) of 1.8 g and an LIVER (9 h) of 8.1 g. It also gave an A/G (9 h) of 0.9, an ALP (9 h) of 1500.8 IU/L and an ALT (9 h) of 36.6 IU/L. The AST (9 h) was 70.6 IU/L, the BUN (9 h) was 7.8 mg/dL and the CRE (9 h) was 0.2 mg/dL. For the same molecule, the Ca (9 h) was 10.5 mg/dL, the Cl (9 h) was 107.6 meq/L and the DBIL (9 h) was 0.02 mg/dL. The GLC (9 h) was 182.4 mg/dL, the IP (9 h) was 10.7 mg/dL and the K (9 h) was 4.3 meq/L. For the same molecule, the LDH (9 h) was 59 IU/L, the Na (9 h) was 142.4 meq/L and the PL (9 h) was 103.2 mg/dL. The RALB (9 h) was 2.5 g/dL, the TBIL (9 h) was 0.06 mg/dL and the TC (9 h) was 46.2 mg/dL. For the same molecule, the TG (9 h) was 49 mg/dL, the TP (9 h) was 5.3 g/dL and the gamma-GTP (9 h) was 1 IU/L. For the same molecule, the TERMINAL_BW (24 h) was 203 g, the APTT (24 h) was 20.8 s and the Bas (24 h) was 0%. The Eos (24 h) was 1%, the Fbg (24 h) was 267.4 mg/dL and the Hb (24 h) was 13.1 g/dL. For the same molecule, the Ht (24 h) was 37.8%, the Lym (24 h) was 83% and the MCH (24 h) was 22 pg. It also gave an MCHC (24 h) of 34.5%, an MCV (24 h) of 63.7 fL and a Mono (24 h) of 2.6%. For the same molecule, the Neu (24 h) was 13%, the PT (24 h) was 13.8 s and the Plat (24 h) was 116.9 x10_4/uL. For the same molecule, the RBC (24 h) was 593.2 x10_4/ul, the Ret (24 h) was 7.7% and the WBC (24 h) was 89.5 x10_2/uL. The KIDNEY_L (24 h) was 0.9 g, the KIDNEY_R (24 h) was 0.9 g and the KIDNEY_TOTAL (24 h) was 1.8 g. The LIVER (24 h) was 10.2 g, the A/G (24 h) was 0.9 and the ALP (24 h) was 1864.8 IU/L. For the same molecule, the ALT (24 h) was 48.8 IU/L, the AST (24 h) was 77.6 IU/L and the BUN (24 h) was 16.8 mg/dL. It also gave a CRE (24 h) of 0.2 mg/dL, a Ca (24 h) of 10.9 mg/dL and a Cl (24 h) of 107.8 meq/L. For the same molecule, the DBIL (24 h) was 0.034 mg/dL, the GLC (24 h) was 185.2 mg/dL and the IP (24 h) was 7.6 mg/dL. The K (24 h) was 4.3 meq/L, the LDH (24 h) was 71 IU/L and the Na (24 h) was 142 meq/L. The PL (24 h) was 126.6 mg/dL, the RALB (24 h) was 2.6 g/dL and the TBIL (24 h) was 0.032 mg/dL. The TC (24 h) was 45.4 mg/dL, the TG (24 h) was 238 mg/dL and the TP (24 h) was 5.6 g/dL. For the same molecule, the gamma-GTP (24 h) was 1.2 IU/L.
